Experimental findings from patent US8648045B2, “VDAC1 compositions and methods of use thereof for regulating apoptosis” (Ben Gurion University of the Negev Research and Development …, priority 2005, dated 2014) are described below.

The target in assay [1] is T1, E72Q-mVDAC1 (Mus musculus, UniProt Q60932, E72Q).
T1 construct: made in house; host or cells: yeast (purified from mitochondria of yeast expressing mutated mVDAC1)
Briefly: VDAC channel recording in planar lipid bilayer (PLB). The settings on record: PLB, 0 mV to −20 mV; all ten experiments. The assay is classed as biochemical. Here is the method: (§1) Native and mutated mVDAC1 were extracted with lauryldimethylamine N-oxide (LDAO) from mitochondria isolated from yeast expressing various VDACs, and purified by chromatography on hydroxyapatite followed by carboxymethyl (CM)-cellulose where LDAO was replaced by β-OG (β-octylglucoside).
(§2) Reconstitution of purified VDAC into a planar lipid bilayer (PLB) multi-channel current recording and data analyses were carried as follows. Briefly, PLB were prepared from soybean asolactin dissolved in n-decane (50 mg/ml) in a chamber containing 10 mM HEPES/KOH pH 7.4 and 0.5 or 1M NaCl (cis/trans). Only PLBs with a resistance greater than 100 GΩ were used. Purified VDAC (about 1 ng) was added to the chamber defined as the cis side. After one or a few channels inserted into the PLB, excess protein was removed by perfusion of the cis chamber with 20 volumes of a solution (with the same composition as before perfusion), in order to prevent further protein incorporation. Currents were recorded under voltage-clamp mode using a Bilayer Clamp amplifier (Warner Instrument, USA). The currents were measured with respect to the trans side of the membrane (ground). The currents were low-pass filtered at 1 kHz, using a Bessal filter (Frequency Devices, USA) and digitized on-line using a Digidata 1200 interface board and pCLAMP 6 software (Axon Instruments). Sigma Plot 2000 scientific software was used for data analyses. Experiments were performed at 23-25° C.
(§3) FIG. 1A: Purified recombinant native or E72Q-mutated mVDAC1 was reconstituted into a PLB (planar lipid bilayer) in symmetrical solutions of 0.5 M NaCl. Currents through VDAC1 channel in response to a voltage step from zero to −20 mV were recorded before and 5 min after the addition of HK-I (28.6 mU/ml). The dashed lines indicate the zero-current level. […] FIG. 1C: Cytochrome c release was assayed, using a monoclonal anti-cytochrome c antibody, in the absence or the presence of HK-I (1 U/ml), chymotrypsin-treated HK-I (1 U/ml) or CsA (10 micro M).
(§4) RuR, known to interact with several Ca^2+ binding proteins and to inhibit Ca^2+ transport in mitochondria, inhibited channel activity of native but not of E72Q-mutated VDAC1 (FIG. 5E). Purified recombinant native and E72Q-mVDAC1 variant were reconstituted into a planar lipid bilayer (PLB) and the currents produced in response to voltages stepped from a holding potential of 0 mV to −20 mV were recorded. […] The level of inhibition calculated from […] different experiments was 89.2±2.8% (mean±SD, n=9). In contrast, the channel activity of E72Q-mVDAC1 was not inhibited by RuR in all ten experiments.

Assay [2] deals with T2, recombinant native mVDAC1 (Mus musculus, UniProt Q60932).
T2 construct: made in house; host or cells: yeast (purified from mitochondria of yeast expressing mVDAC1)
Described as above. The assay is classed as biochemical. Particulars: RuR; PLB, voltage stepped 0 mV to −20 mV; mean±SD, n=9. Here is the method: as §1, §2, §3, §4

The subject of assay [3] is U937 cells. Briefly: Apoptotic cell death of U937 cells transfected with native or mutated mVDAC1, with/without RuR (acridine orange/ethidium bromide staining). The assay is classed as cell-based, human. Here is the method:
Logarithmically-growing U937 cells were resuspended in RPMI 1640 supplemented with 10% FCS, 100 U/ml penicillin and […] streptomycin at a concentration of 2.5×10^7 cells/ml. Cells were transfected to express rat or murine VDAC1 using the vectors pEGFP, pEGFP-VDAC1, pEGFP-E72Q-mVDAC1, pE-mVDAC1 or pE-E72Q-mVDAC1. Transfection of the U937 cells was performed by electroporation with a single pulse from a Bio-Rad micropulser II with a capacitance extender unit (200 V, […]). Cells were incubated on ice for 10 min before and after transfection, and then resuspended in 20 ml of RPMI 1640 supplemented with 10% FCS, 1 mM l-glutamine, 100 U/ml penicillin and […] streptomycin. […] GFP-positive cells were viewed under a microscope using a blue filter.
Cells were plated at a density of 5.4×10^4 cells/cm^2 in 24-well plates, washed once with PBS and placed in serum-free medium. Cells were then incubated with or without RuR or Ru360. Cells were also treated with […] staurosporine (STS) to induce apoptosis and analyzed for viability 3, 5 and 7 hrs after STS addition. Treatments with curcumin (120 μM) or As2O3 (20 μM) were carried out for 48 hrs.
Fifty six (56) hr after transfection, cells were exposed for 20 hr to RuR (1 μM) and cell viability was analyzed using acridine orange/ethidium bromide staining. In each independent experiment, approximately 250 cells were counted for each including early and late apoptotic cells. Data shown in FIG. 5 and Table 2 are the mean±SEM (n=3).

Assay [4] relates to permeability transition pore (PTP). Briefly: PTP opening monitored by Ca2+ accumulation and mitochondrial swelling. The assay is classed as biochemical, rat. Particulars: LP1 0.1 mM or 0.3 mM; brain HK-I 0.25 U/ml pre-incubated 10 min with LP1. Here is the method: Ca^2+ uptake by freshly prepared rat liver mitochondria (0.5 mg/ml) was assayed for 1 to 20 minutes at 30° C. in the presence of 225 mM mannitol, 75 mM sucrose, 120 μM CaCl2 (containing 3×10^4 cpm/nmol [^45Ca^2+]), 5 mM HEPES/KOH, 5 mM succinate and 0.1 mM Pi, pH 7.0. Uptake of ^45Ca^2+ was terminated by rapid Millipore filtration followed by a wash with 5 ml of 150 mM KCl.
Ca^2+-induced mitochondria large amplitude swelling was assayed in freshly-prepared mitochondria under the same conditions as for Ca^2+ accumulation, except that the temperature was 24° C. Cyclosporine A (CsA)-sensitive mitochondrial swelling was initiated upon addition of Ca^2+ (0.2 mM) to the sample. Absorbance changes at 520 nm were monitored every 15-20 sec with an Ultraspec 2100 spectrophotometer.
The failure of non-binding species of HK, such as yeast HK, or trypsin- or chymotrypsin-treated HK-I (FIG. 2D) to prevent PTP opening, confirmed the specificity of the HK-I effect, and of the requirement of the HK-I N-terminal region for its interaction with VDAC.
Mitochondrial swelling was assayed in the absence (control ●) or the presence of HK-I (gray ●) and in presence HK-I pre-incubated with peptide LP1. Mitochondrial swelling was assayed as in FIG. 2 in the absence and the presence of peptide LP1 (0.1 mM or 0.3 mM), brain HK-I (0.25 U/ml) or with HK-I pre-incubated for 10 min with LP1. […]

For assay [5], the target named is T3, mitochondrial bound HK-I (Rattus norvegicus, UniProt P05708).
T3 construct: from tissue; host or cells: rat brain mitochondria
T3 sequence (P05708 1-918): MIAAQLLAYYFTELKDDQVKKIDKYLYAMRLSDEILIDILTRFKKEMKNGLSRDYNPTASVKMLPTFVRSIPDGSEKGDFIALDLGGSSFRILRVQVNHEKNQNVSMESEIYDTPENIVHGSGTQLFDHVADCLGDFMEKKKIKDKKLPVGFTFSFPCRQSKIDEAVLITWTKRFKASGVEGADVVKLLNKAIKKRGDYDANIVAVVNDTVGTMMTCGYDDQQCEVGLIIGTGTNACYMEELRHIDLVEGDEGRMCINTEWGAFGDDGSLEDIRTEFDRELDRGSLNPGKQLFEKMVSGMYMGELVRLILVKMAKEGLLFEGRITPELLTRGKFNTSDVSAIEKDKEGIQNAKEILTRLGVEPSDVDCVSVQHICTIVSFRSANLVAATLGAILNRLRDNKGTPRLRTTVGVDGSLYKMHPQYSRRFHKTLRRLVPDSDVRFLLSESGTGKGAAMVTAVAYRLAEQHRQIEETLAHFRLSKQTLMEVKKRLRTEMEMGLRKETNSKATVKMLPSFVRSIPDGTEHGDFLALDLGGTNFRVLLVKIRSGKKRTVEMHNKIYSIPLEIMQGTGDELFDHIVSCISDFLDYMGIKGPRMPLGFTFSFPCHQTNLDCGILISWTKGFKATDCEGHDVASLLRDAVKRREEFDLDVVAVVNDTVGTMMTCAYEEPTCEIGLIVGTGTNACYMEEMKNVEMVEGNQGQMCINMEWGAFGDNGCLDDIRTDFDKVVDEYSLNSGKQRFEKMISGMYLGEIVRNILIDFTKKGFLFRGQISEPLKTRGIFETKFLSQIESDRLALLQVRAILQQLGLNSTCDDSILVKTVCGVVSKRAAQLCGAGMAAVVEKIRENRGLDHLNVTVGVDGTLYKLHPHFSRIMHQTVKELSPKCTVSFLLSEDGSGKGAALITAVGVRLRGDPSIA
Briefly: Detachment of mitochondria-bound HK-I. The assay is classed as biochemical. The settings on record: rat brain mitochondria; HK-I activity in the supernatant.

T2 sequence (Q60932 14-296 limits assumed): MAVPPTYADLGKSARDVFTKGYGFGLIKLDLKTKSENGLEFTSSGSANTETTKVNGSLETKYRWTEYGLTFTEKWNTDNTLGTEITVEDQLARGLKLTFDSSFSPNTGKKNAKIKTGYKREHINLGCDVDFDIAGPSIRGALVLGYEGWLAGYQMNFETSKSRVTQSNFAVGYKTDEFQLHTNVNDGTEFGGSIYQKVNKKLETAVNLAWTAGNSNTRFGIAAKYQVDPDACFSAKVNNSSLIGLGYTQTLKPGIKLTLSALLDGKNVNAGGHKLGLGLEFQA
T1 sequence (Q60932 14-296 E72Q limits assumed): as the sequence (Q60932 14-296 limits assumed) above, with E59Q counted along it

Turning to `N.N.N.N.N.N.N.N.N.N.N.N.N.N.[Cl-].[Cl-].[Cl-].[Cl-].[Cl-].[Cl-].[O-2].[O-2].[Ru+3].[Ru+3].[Ru+4]` [RuR, ruthenium red], the “inhibition of channel activity by RuR” value in assay [1] is listed as “not inhibited”. The “level of inhibition of channel activity” value in assay [2] turned out to be 89.2±2.8%. Further, the “Apoptotic cells, % +RuR” value in assay [3] (Control (non-transfected) U937 cells, RuR 1 μM) came to 9.1 ± 2.1%. Besides, the “effect on apoptotic death in control or plasmid-transfected cells” value in assay [3] (RuR) is recorded as “had no effect or even slightly increased apoptotic death”. For the same molecule, the “protective effect of RuR on VDAC1 over-expression-induced cell death” value in assay [3] (cells expressing E72Q-mVDAC1, E72Q-mVDAC1-GFP or E65Q-mVDAC1) was “not observed”. Further, the “increase in the total level of VDAC1 protein” value in assay [3] (cells expressing native mVDAC1 exposed to RuR) is reported as “over 5 fold”. In addition, the “protection against apoptotic cell death” value in assay [3] (cells over-expressing VDAC1 or VDAC1-GFP, 1 μM RuR for 18 hr or 5 μM RuR for 5 hr) is given as 64-72%.
As to “WTEYGLTFTEKWNTD [Peptide LP1, 15 amino acid peptide derived from the first cytosolic β-loop of VDAC1, amino acids 63-78]”, the “effect on HK-I prevention of PTP opening” value in assay [4] is “eliminates the HK-I prevention of PTP opening”. Besides, the “detachment of mitochondria-bound HK-I” value in assay [5] is “able to release mitochondrial bound HK-I”.
